These are literature values, as cited in patent publication US7358271B2, “Sulpiride pharmaceutical compositions” (Williamsburg Holdings LLC, priority 2003, dated 2008).

Where two headings read alike, the source gives them in different places.

The conditions of data set [1]: healthy volunteers, oral.
The conditions of data set [2]: oral formulations.
The conditions of data set [3]: compared with physiological pH.

What is called bioavailability is dose-corrected exposure relative to a reference, in per cent. With `CCN1CCCC1CNC(=O)c1cc(S(N)(=O)=O)ccc1OC` (stereo not shown) [sulpiride, N-(1-Ethyl-pyrrolidin-2-ylmethyl)-2-methoxy-5-sulfamoyl-benzamide], the values for the bioavailability in data set [1] (after food) and in data set [1] (without food) were 27% and 20%, respectively. For the same compound, in data set [2], the “absorption in the gastrointestinal tract” value is reported as about 30%. Besides, the pKa result in data set [3] is “lower than physiological pH”.
